Experimental data taken from US11912701B2, “Protein kinase inhibitors for promoting liver regeneration or reducing or preventing hepatocyte death” (HEPAREGENIX GMBH, priority 2018, dated 2024).

How the values were obtained:
MKK4 [1] = biological target: T1, MKK4 (Homo sapiens, UniProt P45985); test: 33PanQinase enzyme assay, MKK4; format: biochemical; conditions: for IC50: assay 'IC50', read-out: Potency MKK4 (IC50)
T1 construct: purchased ProQinase GmbH, Freiburg, Germany (33PanQinase Assay Service)
T1 sequence (P45985 1-399): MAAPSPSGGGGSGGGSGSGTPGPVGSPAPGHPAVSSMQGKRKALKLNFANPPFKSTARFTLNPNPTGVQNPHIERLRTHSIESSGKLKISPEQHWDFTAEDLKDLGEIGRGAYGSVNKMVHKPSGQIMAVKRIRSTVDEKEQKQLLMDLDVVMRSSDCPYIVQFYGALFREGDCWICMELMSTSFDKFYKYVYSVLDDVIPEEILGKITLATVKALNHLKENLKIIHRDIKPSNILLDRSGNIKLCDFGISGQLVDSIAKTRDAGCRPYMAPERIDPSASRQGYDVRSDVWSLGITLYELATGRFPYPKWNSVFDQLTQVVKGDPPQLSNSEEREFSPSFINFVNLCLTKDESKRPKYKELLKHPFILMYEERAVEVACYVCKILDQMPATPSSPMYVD
Method in brief: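 Radiometric 33PanQinase assay: kinase, substrate, ATP and compound in standard buffer, 60 min at 30 °C; 33Pi incorporation read by scintillation counting.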

MKK4 [2] = biological target: T2, MKK4 (Homo sapiens, UniProt P45985); test: KINOMEscan competition binding assay, MKK4; conditions: residual percent of control binding (PoC) at 100 nM
T2 construct: S84/D399; host or cells: HEK-293
T2 sequence (P45985 84-399): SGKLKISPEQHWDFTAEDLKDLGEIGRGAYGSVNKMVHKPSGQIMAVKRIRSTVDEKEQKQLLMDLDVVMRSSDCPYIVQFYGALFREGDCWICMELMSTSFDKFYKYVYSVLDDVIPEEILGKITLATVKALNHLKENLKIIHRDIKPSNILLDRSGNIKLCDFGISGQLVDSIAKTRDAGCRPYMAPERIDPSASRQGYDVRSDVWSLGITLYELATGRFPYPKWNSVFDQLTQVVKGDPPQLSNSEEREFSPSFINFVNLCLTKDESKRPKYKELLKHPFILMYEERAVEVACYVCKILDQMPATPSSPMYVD
Method in brief: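 KINOMEscan competition of compound versus immobilized ligand for DNA-tagged MKK4 expressed in HEK-293 cells. Bound kinase was quantified by qPCR after elution.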

MKK7 [3] = biological target: T3, MKK7 (Homo sapiens, UniProt O14733); test: 33PanQinase enzyme assay, MKK7; format: biochemical; set-up: purchased ProQinase GmbH, Freiburg, Germany (33PanQinase Assay Service); conditions: ratio IC50(MKK7)/IC50(MKK4)
T3 sequence (O14733 1-419): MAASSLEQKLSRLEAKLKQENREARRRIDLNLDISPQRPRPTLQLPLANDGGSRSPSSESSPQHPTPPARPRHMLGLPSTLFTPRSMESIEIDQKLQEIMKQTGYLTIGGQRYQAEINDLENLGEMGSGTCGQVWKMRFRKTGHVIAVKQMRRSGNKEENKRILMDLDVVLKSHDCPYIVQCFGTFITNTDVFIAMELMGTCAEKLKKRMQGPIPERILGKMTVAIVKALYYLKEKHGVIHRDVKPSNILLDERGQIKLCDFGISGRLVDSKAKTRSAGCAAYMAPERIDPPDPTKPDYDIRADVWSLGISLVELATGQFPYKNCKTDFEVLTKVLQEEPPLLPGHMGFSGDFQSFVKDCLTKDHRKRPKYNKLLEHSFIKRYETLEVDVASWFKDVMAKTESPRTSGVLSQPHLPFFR
Method in brief: (§1)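 Radiometric 33PanQinase format: kinase with substrate, ATP and compound (added in 10% DMSO stock) incubated 60 min at 30° C, stopped with 2% H3PO4, ^33Pi incorporation counted by scintillation. Single-concentration data given as % residual activity; IC50 by least-squares fit, with selectivity as IC50(off-target)/IC50(MKK4).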

JNK1 [4] = biological target: T4, JNK1 (Homo sapiens, UniProt P45983); test: KINOMEscan competition binding assay, JNK1; set-up: M1/Q384; host or cells: HEK-293; conditions: ratio PoC (off-target)/PoC (MKK4)
Method in brief: (§2)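 DNA-tagged kinases expressed in HEK-293 cells compete between immobilized ligand on blocked beads and test compound at 100 nM; kinase retained on beads quantified by qPCR of the tag.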
Target sequence in this assay (P45983 1-384 isoform P45983-2): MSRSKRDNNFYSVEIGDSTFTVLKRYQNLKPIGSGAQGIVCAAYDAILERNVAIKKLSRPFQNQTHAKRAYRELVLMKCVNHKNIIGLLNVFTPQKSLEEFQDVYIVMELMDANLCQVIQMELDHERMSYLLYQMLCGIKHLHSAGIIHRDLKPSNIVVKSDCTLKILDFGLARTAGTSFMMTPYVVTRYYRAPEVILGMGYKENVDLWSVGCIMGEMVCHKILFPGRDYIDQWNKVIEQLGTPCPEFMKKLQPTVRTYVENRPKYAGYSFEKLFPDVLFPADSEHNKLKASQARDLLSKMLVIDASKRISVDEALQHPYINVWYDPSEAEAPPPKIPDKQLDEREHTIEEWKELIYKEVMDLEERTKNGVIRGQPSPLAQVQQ

JNK1 [5] = biological target: T4, JNK1; test: 33PanQinase enzyme assay, JNK1; format: biochemical; set-up: purchased ProQinase GmbH, Freiburg, Germany (33PanQinase Assay Service); conditions: ratio IC50(JNK1)/IC50(MKK4)
Method in brief: as §1
Target sequence in this assay (P45983 whole entry): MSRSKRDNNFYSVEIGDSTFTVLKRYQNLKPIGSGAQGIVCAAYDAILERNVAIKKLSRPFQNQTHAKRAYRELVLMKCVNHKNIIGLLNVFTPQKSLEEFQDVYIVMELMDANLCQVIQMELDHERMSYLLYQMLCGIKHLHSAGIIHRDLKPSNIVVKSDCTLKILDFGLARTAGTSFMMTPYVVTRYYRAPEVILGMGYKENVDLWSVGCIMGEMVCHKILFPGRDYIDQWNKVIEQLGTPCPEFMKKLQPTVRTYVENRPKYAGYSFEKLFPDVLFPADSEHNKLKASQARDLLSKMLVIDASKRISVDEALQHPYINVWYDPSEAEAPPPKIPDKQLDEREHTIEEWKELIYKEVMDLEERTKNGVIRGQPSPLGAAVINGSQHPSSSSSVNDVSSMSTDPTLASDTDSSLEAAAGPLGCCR

MKK7 [6] = biological target: T3, MKK7; test: KINOMEscan competition binding assay, MKK7; set-up: M1/R419; host or cells: HEK-293; conditions: ratio PoC (off-target)/PoC (MKK4)
Method in brief: as §2

BRaf = biological target: T5, BRaf (Homo sapiens, UniProt P15056); test: KINOMEscan competition binding assay, BRaf; conditions: ratio PoC (off-target)/PoC (MKK4)
T5 construct: purchased ProQinase GmbH, Freiburg, Germany (33PanQinase Assay Service)
T5 sequence (P15056 whole entry, species assumed): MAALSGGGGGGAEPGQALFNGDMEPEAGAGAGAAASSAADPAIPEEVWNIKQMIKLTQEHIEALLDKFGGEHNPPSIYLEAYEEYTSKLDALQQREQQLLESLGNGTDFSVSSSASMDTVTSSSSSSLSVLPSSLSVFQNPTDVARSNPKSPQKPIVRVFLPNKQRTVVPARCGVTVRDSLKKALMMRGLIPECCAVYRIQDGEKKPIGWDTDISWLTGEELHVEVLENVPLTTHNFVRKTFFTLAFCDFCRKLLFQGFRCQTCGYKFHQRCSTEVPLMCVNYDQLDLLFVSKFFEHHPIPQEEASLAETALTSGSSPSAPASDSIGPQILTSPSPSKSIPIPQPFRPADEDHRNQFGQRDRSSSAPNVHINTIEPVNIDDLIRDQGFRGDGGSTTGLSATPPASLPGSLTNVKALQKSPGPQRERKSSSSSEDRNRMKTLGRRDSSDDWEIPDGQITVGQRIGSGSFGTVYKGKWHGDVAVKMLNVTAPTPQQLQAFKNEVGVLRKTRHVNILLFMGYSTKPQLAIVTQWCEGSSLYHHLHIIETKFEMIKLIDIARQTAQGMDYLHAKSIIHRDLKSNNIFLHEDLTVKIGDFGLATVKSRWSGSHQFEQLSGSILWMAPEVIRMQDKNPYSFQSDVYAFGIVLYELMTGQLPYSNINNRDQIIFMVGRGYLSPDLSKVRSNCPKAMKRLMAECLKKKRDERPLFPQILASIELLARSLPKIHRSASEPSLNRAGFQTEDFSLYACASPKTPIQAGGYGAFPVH
Method in brief: as §2

| IC50 (MKK4 [1]) [µM] | MKK4 [% Ctrl @ 100 nM (MKK4 [2]) | selectivity based on % Ctrl @100 nM vs. JNK1 (JNK1 [4]) | Selectivity JNK1, IC50(off-target)/IC50(MKK4) (JNK1 [5]) | selectivity based on % Ctrl @100 nM vs. MKK7 (MKK7 [6]) | selectivity based on % Ctrl @100 nM vs. Braf (BRaf) | remaining activity at 0.1 µM (MKK4 [1]; single concentration 100 nM, read-out: Potency MKK4 (residual activity, assay at single concentration)) [%] | SMILES | Selectivity IVIKK7, IC50(off-target)/IC50(MKK4) (MKK7 [3]) |
| --- | --- | --- | --- | --- | --- | --- | --- | --- |
| 0.1 to 1 | +++ (PoC < 1) | +++ (Ratio > 100) | ◯ (3 ≥ IC50(off-target)/IC50(MKK4)) | +++ (Ratio > 100) | ◯ (3 ≥ Ratio) | – | CCCS(=O)(=O)Nc1ccc(F)c(C(=O)c2c[nH]c3ncc(-c4cnc[nH]4)cc23)c1F [Example 83, N-(3-(5-(1H-imidazol-5-yl)-1H-pyrrolo[2,3-b]pyridine-3-carbonyl)-2,4-difluorophenyl)propane-1-sulfonamide] | ++· |
| 0.1 to 1 | +++ (PoC < 1) | +++ (Ratio > 100) | ◯ (3 ≥ IC50(off-target)/IC50(MKK4)) | +++ (Ratio > 100) | ◯ (3 ≥ Ratio) | – | CCCS(=O)(=O)Nc1ccc(F)c(C(=O)c2c[nH]c3ncc(-c4ccn[nH]4)cc23)c1F [Example 84, N-(3-(5-(1H-pyrazol-5-yl)-1H-pyrrolo[2,3-b]pyridine-3-carbonyl)-2,4-difluorophenyl)propane-1-sulfonamide] | +++ (IC50(off-target)/IC50(MKK4) > 100) |

Second part, the molecule before the results:

| SMILES | IC50 (MKK4 [1]) [µM] | MKK4 [% Ctrl @ 100 nM (MKK4 [2]) | selectivity based on % Ctrl @100 nM vs. JNK1 (JNK1 [4]) | Selectivity JNK1, IC50(off-target)/IC50(MKK4) (JNK1 [5]) | selectivity based on % Ctrl @100 nM vs. MKK7 (MKK7 [6]) | selectivity based on % Ctrl @100 nM vs. Braf (BRaf) | remaining activity at 0.1 µM (MKK4 [1]; single concentration 100 nM, read-out: Potency MKK4 (residual activity, assay at single concentration)) [%] | Selectivity IVIKK7, IC50(off-target)/IC50(MKK4) (MKK7 [3]) |
| --- | --- | --- | --- | --- | --- | --- | --- | --- |
| CCCS(=O)(=O)Nc1ccc(F)c(C(=O)c2c[nH]c3ncc(-c4ccnnc4)cc23)c1F [Example 49] | 1 to 10 | +++ (PoC < 1) | +++ (Ratio > 100) | ++ (100 ≥ IC50(off-target)/IC50(MKK4) > 10) | +++ (Ratio > 100) | ◯ (3 ≥ Ratio) | – | ++ (100 ≥ IC50(off-target)/IC50(MKK4) > 10) |
| CCCS(=O)(=O)Nc1ccc(F)c(C(=O)c2c[nH]c3ncc(-c4cccnc4)cc23)c1F [Example 58] | 0.1 to 1 | +++ (PoC < 1) | +++ (Ratio > 100) | ◯ (3 ≥ IC50(off-target)/IC50(MKK4)) | +++ (Ratio > 100) | ++ (100 ≥ ratio > 10) | – | ++ (100 ≥ IC50(off-target)/IC50(MKK4) > 10) |
| O=C(c1c(F)ccc(NS(=O)(=O)CCCO)c1F)c1c[nH]c2ncc(-c3ccc(Cl)cc3)cc12 [Example 67, N-(3-(5-(4-chlorophenyl)-1H-pyrrolo[2,3-b]pyridine-3-carbonyl)-2,4-difluorophenyl)-3-hydroxypropane-1-sulfonamide] | – | ◯ (30 ≤ PoC) | ◯ (3 ≥ Ratio) | – | ◯ (3 ≥ Ratio) | ◯ (3 ≥ Ratio) | > 90 | – |
